{"source": "patent US9492471B2", "about": "“Methods of treating a disease or disorder associated with Bruton'S Tyrosine Kinase” (Celgene Avilomics Research, Inc., priority 2013, dated 2016)", "test_in_all_cases": "HotSpot kinase profiling", "format_in_all_cases": "biochemical", "key": {"EPHA2": {"target": "T1, EPHA2 (Homo sapiens, UniProt P29317)", "T1 construct": "purchased Reaction Biology Corp", "T1 sequence (P29317 24-976)": "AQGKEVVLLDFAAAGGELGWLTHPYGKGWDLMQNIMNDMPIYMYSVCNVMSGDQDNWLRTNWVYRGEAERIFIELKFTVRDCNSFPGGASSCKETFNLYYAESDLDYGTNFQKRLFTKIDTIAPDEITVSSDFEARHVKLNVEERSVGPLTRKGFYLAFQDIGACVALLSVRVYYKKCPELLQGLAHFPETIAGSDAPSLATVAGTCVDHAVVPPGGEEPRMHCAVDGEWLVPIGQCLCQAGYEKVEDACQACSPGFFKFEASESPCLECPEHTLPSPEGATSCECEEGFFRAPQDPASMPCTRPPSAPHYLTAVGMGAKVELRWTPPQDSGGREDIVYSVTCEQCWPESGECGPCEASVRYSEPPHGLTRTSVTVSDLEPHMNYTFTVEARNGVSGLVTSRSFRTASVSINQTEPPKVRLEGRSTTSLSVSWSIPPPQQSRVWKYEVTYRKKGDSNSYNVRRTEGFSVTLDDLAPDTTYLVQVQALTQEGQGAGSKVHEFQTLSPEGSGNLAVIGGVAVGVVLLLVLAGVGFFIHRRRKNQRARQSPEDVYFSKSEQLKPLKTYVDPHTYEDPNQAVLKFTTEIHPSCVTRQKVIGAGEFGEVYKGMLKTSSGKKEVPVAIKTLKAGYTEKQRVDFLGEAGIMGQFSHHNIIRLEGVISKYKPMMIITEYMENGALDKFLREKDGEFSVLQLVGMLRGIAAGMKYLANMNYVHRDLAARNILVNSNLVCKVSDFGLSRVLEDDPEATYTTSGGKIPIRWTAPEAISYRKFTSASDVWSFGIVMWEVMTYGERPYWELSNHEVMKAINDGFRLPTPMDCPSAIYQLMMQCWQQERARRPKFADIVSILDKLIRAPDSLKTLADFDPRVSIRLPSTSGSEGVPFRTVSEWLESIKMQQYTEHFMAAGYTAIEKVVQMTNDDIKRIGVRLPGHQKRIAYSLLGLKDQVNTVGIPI", "description": "(§1) The binding assay system for profiling kinase activity were based upon HotSpot technology (Reaction Biology Corp.; Malvern, Pa., USA) and utilized radio-isotope-based P81 filtration. […] Substrates for the various kinases tested against Compound 2 (substrate information available on the Reaction Biology Corp. website) were prepared fresh daily in Reaction Buffer. Any required cofactors were then added to the substrate solution. The identification and selection of the appropriate cofactor for each kinase is within the ability of a person skilled in the art. See, for example, Handbook of Assay Development in Drug Discovery, Ed. Lisa K. Minor, 2006: CRC Press, Boca Raton, Fla.; Gao et al., “A broad activity screen in support of a chemogenomic map for kinase signalling research and drug discovery,” Biochem J. 2013, 451(2): 313-28; and Eglen et al., “Drug discovery and the human kinome: Recent trends,” Pharmacology & Therapeutics 2011, 130(2): 144-156. The kinase was then added to the substrate solution and gently mixed. […] This was followed by incubation at room temperature for 2 h. The reaction was terminated and any unreacted phosphate was washed away using 0.1% phosphoric acid prior to detection utilizing a proprietary technology. […] DMSO was used as the negative control.\n(§2) Percent inhibition was expressed as an average where the assay was performed more than once, e.g., in duplicate."}, "GCK/MAP4K2": {"target": "T2, GCK/MAP4K2 (Homo sapiens, UniProt Q12851)", "T2 construct": "purchased Reaction Biology Corp", "T2 sequence (Q12851 1-820)": "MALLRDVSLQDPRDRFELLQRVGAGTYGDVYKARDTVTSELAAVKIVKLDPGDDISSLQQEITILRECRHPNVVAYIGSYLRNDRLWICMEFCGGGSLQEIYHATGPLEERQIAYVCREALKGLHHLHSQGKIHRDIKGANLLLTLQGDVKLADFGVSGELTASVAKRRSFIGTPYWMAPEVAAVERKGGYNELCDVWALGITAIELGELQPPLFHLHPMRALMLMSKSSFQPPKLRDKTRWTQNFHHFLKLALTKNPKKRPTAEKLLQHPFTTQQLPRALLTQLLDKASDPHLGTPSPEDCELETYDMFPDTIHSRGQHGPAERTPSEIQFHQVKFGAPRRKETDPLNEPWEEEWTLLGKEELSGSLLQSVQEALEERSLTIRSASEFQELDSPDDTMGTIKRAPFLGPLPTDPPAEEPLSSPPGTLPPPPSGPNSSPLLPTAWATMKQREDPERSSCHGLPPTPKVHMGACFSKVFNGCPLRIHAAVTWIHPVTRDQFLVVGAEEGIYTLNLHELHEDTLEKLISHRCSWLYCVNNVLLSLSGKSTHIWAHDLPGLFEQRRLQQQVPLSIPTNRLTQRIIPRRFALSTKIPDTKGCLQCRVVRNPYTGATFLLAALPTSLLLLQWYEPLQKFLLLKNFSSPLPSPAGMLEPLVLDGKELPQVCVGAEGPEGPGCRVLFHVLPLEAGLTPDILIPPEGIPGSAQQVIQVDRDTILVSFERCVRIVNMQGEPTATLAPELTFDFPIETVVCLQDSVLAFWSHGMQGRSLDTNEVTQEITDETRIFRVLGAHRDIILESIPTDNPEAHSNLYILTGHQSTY", "description": "as §1, §2"}, "BRAF": {"target": "T3, BRAF (Homo sapiens, UniProt P15056)", "T3 construct": "purchased Reaction Biology Corp", "T3 sequence (P15056 whole entry)": "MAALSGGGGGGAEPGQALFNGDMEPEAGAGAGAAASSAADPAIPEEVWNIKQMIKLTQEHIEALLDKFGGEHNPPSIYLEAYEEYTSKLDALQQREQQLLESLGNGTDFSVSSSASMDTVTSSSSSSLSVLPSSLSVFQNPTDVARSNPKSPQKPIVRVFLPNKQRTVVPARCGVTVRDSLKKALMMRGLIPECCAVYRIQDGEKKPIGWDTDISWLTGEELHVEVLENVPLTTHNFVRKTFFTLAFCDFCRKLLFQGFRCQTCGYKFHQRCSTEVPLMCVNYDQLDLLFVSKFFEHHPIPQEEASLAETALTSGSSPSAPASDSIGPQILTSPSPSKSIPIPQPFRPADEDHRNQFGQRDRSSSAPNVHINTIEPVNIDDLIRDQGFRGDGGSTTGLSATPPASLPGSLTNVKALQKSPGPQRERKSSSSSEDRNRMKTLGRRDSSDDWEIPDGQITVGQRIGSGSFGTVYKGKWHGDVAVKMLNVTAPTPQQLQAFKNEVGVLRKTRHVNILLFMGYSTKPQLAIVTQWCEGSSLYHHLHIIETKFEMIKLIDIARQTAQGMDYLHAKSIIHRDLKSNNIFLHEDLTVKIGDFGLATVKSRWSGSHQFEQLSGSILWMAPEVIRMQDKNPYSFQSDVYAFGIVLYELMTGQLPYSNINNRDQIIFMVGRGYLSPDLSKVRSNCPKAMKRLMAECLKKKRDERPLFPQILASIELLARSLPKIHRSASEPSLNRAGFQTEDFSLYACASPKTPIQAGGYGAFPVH", "description": "as §1, §2"}, "TLK1": {"target": "T4, TLK1 (Homo sapiens, UniProt Q9UKI8)", "T4 construct": "purchased Reaction Biology Corp", "T4 sequence (Q9UKI8 1-766)": "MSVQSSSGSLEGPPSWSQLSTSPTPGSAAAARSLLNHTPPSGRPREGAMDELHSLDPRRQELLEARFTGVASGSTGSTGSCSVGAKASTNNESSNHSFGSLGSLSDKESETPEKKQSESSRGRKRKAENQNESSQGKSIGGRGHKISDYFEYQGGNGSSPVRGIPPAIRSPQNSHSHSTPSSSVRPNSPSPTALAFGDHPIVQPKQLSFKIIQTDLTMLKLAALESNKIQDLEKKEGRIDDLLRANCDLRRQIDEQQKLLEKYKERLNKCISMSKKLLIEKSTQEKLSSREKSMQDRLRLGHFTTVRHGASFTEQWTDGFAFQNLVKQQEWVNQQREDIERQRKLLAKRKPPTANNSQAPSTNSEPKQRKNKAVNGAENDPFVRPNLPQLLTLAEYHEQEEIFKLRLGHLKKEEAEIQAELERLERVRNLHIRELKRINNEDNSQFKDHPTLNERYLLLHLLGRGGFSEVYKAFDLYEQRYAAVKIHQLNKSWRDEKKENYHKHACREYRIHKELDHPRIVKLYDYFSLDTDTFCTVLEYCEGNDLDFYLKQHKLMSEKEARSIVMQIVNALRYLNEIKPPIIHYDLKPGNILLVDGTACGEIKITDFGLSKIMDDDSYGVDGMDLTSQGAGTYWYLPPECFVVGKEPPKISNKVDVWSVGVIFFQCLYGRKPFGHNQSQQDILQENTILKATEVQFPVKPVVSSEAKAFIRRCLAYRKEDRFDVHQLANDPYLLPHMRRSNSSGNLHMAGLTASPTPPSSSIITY", "description": "as §1, §2"}, "ZAP70": {"target": "T5, ZAP70 (Homo sapiens, UniProt P43403)", "T5 construct": "purchased Reaction Biology Corp", "T5 sequence (P43403 1-619)": "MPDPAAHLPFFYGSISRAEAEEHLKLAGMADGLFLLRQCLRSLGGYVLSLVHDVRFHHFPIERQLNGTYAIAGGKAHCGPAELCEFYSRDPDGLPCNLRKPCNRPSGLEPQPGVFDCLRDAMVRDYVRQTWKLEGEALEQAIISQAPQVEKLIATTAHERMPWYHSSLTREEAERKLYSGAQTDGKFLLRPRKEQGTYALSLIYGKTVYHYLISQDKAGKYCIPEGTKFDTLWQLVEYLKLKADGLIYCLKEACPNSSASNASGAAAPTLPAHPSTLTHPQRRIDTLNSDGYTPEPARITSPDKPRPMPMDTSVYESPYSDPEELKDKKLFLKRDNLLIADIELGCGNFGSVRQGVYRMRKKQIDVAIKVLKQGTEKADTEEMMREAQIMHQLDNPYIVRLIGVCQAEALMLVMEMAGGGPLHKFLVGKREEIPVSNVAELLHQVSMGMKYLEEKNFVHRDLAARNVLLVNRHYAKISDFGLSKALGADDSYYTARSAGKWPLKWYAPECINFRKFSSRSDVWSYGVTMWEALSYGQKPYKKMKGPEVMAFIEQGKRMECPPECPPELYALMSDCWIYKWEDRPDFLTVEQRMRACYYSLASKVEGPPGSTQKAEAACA", "description": "as §1, §2"}, "[1]": {"settings": "read-out: % Enzyme Activity (relative to DMSO controls) Run 1"}, "[2]": {"settings": "read-out: % Enzyme Activity (relative to DMSO controls) Run 2"}}, "note": "Like-named read-outs stand apart in the source and are kept apart here."}
{"smiles": "C=CC(=O)Nc1cccc(Nc2nc(Nc3ccc(OCCOC)c(F)c3)ncc2F)c1", "note": "[Compound 2]", "values": [{"measurement": "inhibition at 3 µM", "setting": "EPHA2", "result": 15.8, "unit": "%"}, {"measurement": "remaining activity at 3 µM", "setting": "EPHA2; [1]", "result": 84.2, "unit": "%"}, {"measurement": "remaining activity at 3 µM", "setting": "EPHA2; [2]", "result": 84.1, "unit": "%"}, {"measurement": "inhibition at 3 µM", "setting": "GCK/MAP4K2", "result": -0.14, "unit": "%"}, {"measurement": "remaining activity at 3 µM", "setting": "GCK/MAP4K2; [1]", "result": 100, "unit": "%"}, {"measurement": "remaining activity at 3 µM", "setting": "GCK/MAP4K2; [2]", "result": 100, "unit": "%"}, {"measurement": "inhibition at 3 µM", "setting": "BRAF", "result": 0.04, "unit": "%"}, {"measurement": "remaining activity at 3 µM", "setting": "BRAF; [1]", "result": 101, "unit": "%"}, {"measurement": "remaining activity at 3 µM", "setting": "BRAF; [2]", "result": 99.1, "unit": "%"}, {"measurement": "inhibition at 3 µM", "setting": "TLK1", "result": -2.91, "unit": "%"}, {"measurement": "remaining activity at 3 µM", "setting": "TLK1; [1]", "result": 102, "unit": "%"}, {"measurement": "remaining activity at 3 µM", "setting": "TLK1; [2]", "result": 103, "unit": "%"}, {"measurement": "inhibition at 3 µM", "setting": "ZAP70", "result": -9.21, "unit": "%"}, {"measurement": "remaining activity at 3 µM", "setting": "ZAP70; [1]", "result": 110, "unit": "%"}, {"measurement": "remaining activity at 3 µM", "setting": "ZAP70; [2]", "result": 108, "unit": "%"}]}
